According to PubChem BioAssay (NCI):
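How tested: cells in 96-well plates exposed to compound for 48 hours at five concentrations. TGI marks complete inhibition of growth.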

Columns and labels:
Assay in all cases: NCI tumour cell line growth inhibition, 48 h
UACC-257 melanoma = system: UACC-257 melanoma
P388/ADR leukemia = system: P388/ADR leukemia
SN12K1 renal = system: SN12K1 renal
NCI/ADR-RES ovarian = system: NCI/ADR-RES ovarian
HCT-116 colon = system: HCT-116 colon
NCI-H460 lung = system: NCI-H460 lung
SK-MEL-2 melanoma = system: SK-MEL-2 melanoma
K-562 leukemia = system: K-562 leukemia
A498 renal = system: A498 renal
TK-10 renal = system: TK-10 renal
MOLT-4 leukemia = system: MOLT-4 leukemia
SF-295 CNS = system: SF-295 CNS
IGROV1 ovarian = system: IGROV1 ovarian
CAKI-1 renal = system: CAKI-1 renal
HL-60(TB) leukemia = system: HL-60(TB) leukemia
P388 leukemia = system: P388 leukemia
DMS 273 small cell lung = system: DMS 273 small cell lung
HOP-92 NSCLC = system: HOP-92 NSCLC
786-0 renal = system: 786-0 renal
UACC-62 melanoma = system: UACC-62 melanoma
DLD-1 colon = system: DLD-1 colon
XF 498 CNS = system: XF 498 CNS
HCC-2998 colon = system: HCC-2998 colon
SK-MEL-28 melanoma = system: SK-MEL-28 melanoma
MCF7 breast = system: MCF7 breast
NCI-H23 lung = system: NCI-H23 lung
KM20L2 colon = system: KM20L2 colon
OVCAR-8 ovarian = system: OVCAR-8 ovarian
LXFL 529 NSCLC = system: LXFL 529 NSCLC
MALME-3M melanoma = system: MALME-3M melanoma
M19-MEL melanoma = system: M19-MEL melanoma
RXF 393 renal = system: RXF 393 renal
T-47D breast = system: T-47D breast
OVCAR-3 ovarian = system: OVCAR-3 ovarian
SN12C renal = system: SN12C renal
HT29 colon = system: HT29 colon
SK-MEL-5 melanoma = system: SK-MEL-5 melanoma
SF-268 CNS = system: SF-268 CNS
DU-145 prostate = system: DU-145 prostate
HOP-18 NSCLC = system: HOP-18 NSCLC
OVCAR-4 ovarian = system: OVCAR-4 ovarian
SF-539 CNS = system: SF-539 CNS
MDA-MB-231 breast = system: MDA-MB-231 breast
OVCAR-5 ovarian = system: OVCAR-5 ovarian
BT-549 breast = system: BT-549 breast
HCT-15 colon = system: HCT-15 colon
SNB-75 CNS = system: SNB-75 CNS
UO-31 renal = system: UO-31 renal
MDA-MB-435 = system: MDA-MB-435
RXF-631 renal = system: RXF-631 renal
PC-3 prostate = system: PC-3 prostate
NCI-H522 lung = system: NCI-H522 lung
KM12 colon = system: KM12 colon
DMS 114 small cell lung = system: DMS 114 small cell lung
NCI-H226 lung = system: NCI-H226 lung
MDA-N = system: MDA-N
HS 578T breast = system: HS 578T breast
EKVX NSCLC = system: EKVX NSCLC
M14 melanoma = system: M14 melanoma
A549 NSCLC = system: A549 NSCLC
HOP-62 NSCLC = system: HOP-62 NSCLC
LOX IMVI melanoma = system: LOX IMVI melanoma
SK-OV-3 ovarian = system: SK-OV-3 ovarian
SR leukemia = system: SR leukemia
CCRF-CEM leukemia = system: CCRF-CEM leukemia
ACHN renal = system: ACHN renal
SNB-19 CNS = system: SNB-19 CNS
U251 CNS = system: U251 CNS
SNB-78 CNS = system: SNB-78 CNS
RPMI-8226 leukemia = system: RPMI-8226 leukemia
COLO 205 colon = system: COLO 205 colon
SW-620 colon = system: SW-620 colon

O=c1cnn(C2OC(CO)C(O)C2O)c(=S)[nH]1 (configuration not stated)
TGI (UACC-257 melanoma): > 100 µM
TGI (P388/ADR leukemia): 6.27 µM
TGI (SN12K1 renal): > 100 µM
TGI (NCI/ADR-RES ovarian): > 100 µM
TGI (HCT-116 colon): > 100 µM
TGI (NCI-H460 lung): > 41.7 µM
TGI (SK-MEL-2 melanoma): > 100 µM
TGI (K-562 leukemia): > 44.6 µM
TGI (A498 renal): > 100 µM
TGI (TK-10 renal): > 100 µM
TGI (MOLT-4 leukemia): > 30.7 µM
TGI (SF-295 CNS): > 100 µM
TGI (IGROV1 ovarian): > 100 µM
TGI (CAKI-1 renal): > 100 µM
TGI (HL-60(TB) leukemia): > 100 µM
TGI (P388 leukemia): 11.2 µM
TGI (DMS 273 small cell lung): > 100 µM
TGI (HOP-92 NSCLC): > 100 µM
TGI (786-0 renal): > 100 µM
TGI (UACC-62 melanoma): > 100 µM
TGI (DLD-1 colon): > 100 µM
TGI (XF 498 CNS): > 100 µM
TGI (HCC-2998 colon): > 100 µM
TGI (SK-MEL-28 melanoma): > 100 µM
TGI (MCF7 breast): > 100 µM
TGI (NCI-H23 lung): > 100 µM
TGI (KM20L2 colon): > 100 µM
TGI (OVCAR-8 ovarian): > 100 µM
TGI (LXFL 529 NSCLC): > 100 µM
TGI (MALME-3M melanoma): > 100 µM
TGI (M19-MEL melanoma): > 100 µM
TGI (RXF 393 renal): > 100 µM
TGI (T-47D breast): > 100 µM
TGI (OVCAR-3 ovarian): > 100 µM
TGI (SN12C renal): > 100 µM
TGI (HT29 colon): > 100 µM
TGI (SK-MEL-5 melanoma): > 100 µM
TGI (SF-268 CNS): > 100 µM
TGI (DU-145 prostate): > 100 µM
TGI (HOP-18 NSCLC): > 100 µM
TGI (OVCAR-4 ovarian): > 100 µM
TGI (SF-539 CNS): > 100 µM
TGI (MDA-MB-231 breast): > 100 µM
TGI (OVCAR-5 ovarian): > 100 µM
TGI (BT-549 breast): > 100 µM
TGI (HCT-15 colon): > 100 µM
TGI (SNB-75 CNS): > 100 µM
TGI (UO-31 renal): > 100 µM
TGI (MDA-MB-435): > 100 µM
TGI (RXF-631 renal): > 100 µM
TGI (PC-3 prostate): > 100 µM
TGI (NCI-H522 lung): > 55.4 µM
TGI (KM12 colon): > 100 µM
TGI (DMS 114 small cell lung): > 100 µM
TGI (NCI-H226 lung): > 100 µM
TGI (MDA-N): > 100 µM
TGI (HS 578T breast): > 100 µM
TGI (EKVX NSCLC): > 100 µM
TGI (M14 melanoma): > 100 µM
TGI (A549 NSCLC): > 100 µM
TGI (HOP-62 NSCLC): > 100 µM
TGI (LOX IMVI melanoma): > 68.5 µM
TGI (SK-OV-3 ovarian): > 100 µM
TGI (SR leukemia): 19.2 µM
TGI (CCRF-CEM leukemia): > 100 µM
TGI (ACHN renal): > 100 µM
TGI (SNB-19 CNS): > 100 µM
TGI (U251 CNS): > 100 µM
TGI (SNB-78 CNS): > 100 µM
TGI (RPMI-8226 leukemia): > 29.8 µM
TGI (COLO 205 colon): > 100 µM
TGI (SW-620 colon): > 74.6 µM
